# Measurements reported in patent publication US8519163B2, “Anti-tumor activity of AECHL-1, novel triterpenoid isolated from Ailanthus excelsa in vitro and in vivo” (National Centre for Cell Science, priority 2008, dated 2013).
# Tests used:
# [1] = system: MCF-7; assay: In vivo xenograft tumor model; set-up: species or system athymic nude mice; conditions: for tumor size reduced by: MCF-7 xenograft
# Procedure: The data reported for tumor volumes are expressed as mean±SEM. Statistical differences were determined by ANOVA and post test applied was Tukey-Kramer multiple comparison Test. For Tumor to body weight ratio post test applied was Dunnett multiple comparisons test.
# [2] = mouse, in vivo
# Procedure: Next, we examined the effects of AECHL-1 on the growth of primary tumor allografts and xenografts of B16F10 cells growing in C57B1/6 mice and MCF-7 cells growing in athymic nude mice respectively. […] On this basis, we chose a dose that was 10-20% of this maximum tolerated dose or 50 and 100 μg/kg/day, i.p. or the doses which induced maximum cell death in vitro.
smiles,measurement,setting,value
C=C1C(OCC)C2(O)OCC34C(=C(C)c5c(C)cc(O)c(OCC)c5C23)OC(=O)C(OC(=O)C(C)(O)CC)C14 (centres unmarked) [AECHL-1],tumor size reduced by,[1]; 5 μg/0.05 ml intra-tumor for 10 days,35.72±0.05%
same,tumor size reduced by,[1]; 10 μg/0.05 ml intra-tumor for 10 days,28.55±0.06%
same,tumor size reduced by,[1]; 20 μg/0.05 ml intra-tumor for 10 days,4.1±0.27%
same,histological examination of tumor tissue,"[1]; nude mice, 5 μg",decreased tumor cell density
same,maximum tolerated dose,[2],500 μg/mice
